Test results as given in US20030106108A1, “Genetic transformation method for zoysiagrass” (priority 2001, published 2003).

What was measured:
zoysiagrass type 1 calli = assay: Growth of type 1 calli on MS media with combinations of 2,4-D and BA; format: cell-based, Zoysia japonica Steud.; details: for Callus fresh weight, Total / Callus fresh weight, Type 1 / Callus fresh weight, Type 2 / Callus fresh weight, Type 3 / Callus fresh weight, Type 4: BA 0 mg/l, 5 weeks, dark, 28° C., mean of ten calli
Experimental: To investigate morphological changes occurring on type 1 calli subculturing, type 1 calli were transferred to a MS medium containing various hormonal combinations of 2,4-D (1, 2, 4, and 8 mg/liter) and BA (0, 0.01, and 0.1 mg/liter) in the dark. After five weeks of subculturing in the dark, four callus types were observed. Each callus type was weighed, and the weight ratios were calculated. Calli of types 2, 3, and 4 were also examined in an identical way as with type 1 callus.
Ten mg of type 1 calli was grown on MS media with various combinations of 2,4-D and BA and 2 g/liter gelrite for 5 weeks in the dark at 28° C. Each value represents a mean calculated from ten calli. Callus morphologies were rated by; 1=whitish-yellow, compact and non-friable, 2=white, compact and friable, 3=yellow, compact and very friable, 4=translucent, soft and watery.

zoysiagrass calli = format: cell-based, Zoysia japonica Steud.
Experimental: Acetosyringone was prepared by dissolving an appropriate amount of powder in dimethyl sulfoxide at a concentration of 100 mg/ml and stored at 4° C. in the dark. It was added to the sterile medium to an appropriate final concentration whenever required. The calli proliferated on the MSCG4 medium were immersed in the Agrobacterial cell suspension for 1 min. After dehydration on sterile filter paper, the calli were cultivated on a co-cultivation medium (MSAS) with 4 mg/liter 2,4-D at 26±1° C. in the dark for 15 days. After co-cultivation, the calli were thoroughly washed by vortexing in sterile double-distilled water supplemented with a surfactant (0.02% pluronic F68) until the washing solution becomes transparent and finally washed in sterile double-distilled water containing 1000 mg/liter calbenicillin and 0.02% surfactant. After washing, an half of the calli were used for GUS activity assay by the method described by Schenk et al. (1998).
Several factors were tested to optimize transformation efficiency. (1) For comparison of different callus types on invasiveness, types 1, 2 and 3 calli were co-cultivated on 2,4-D-free MSAS media for 6 days; (2) For comparison of co-cultivation periods, calli were co-cultivated for 3, 6, 9, 12, 15, 18, 21, 24 and 27 days; (3) For examination of media components, different amounts of 2,4-D (0, 1, 2, 4, and 8 mg/liter), CaCl2 (0, 11, 110, 220, and 440 mg/liter), and acetosyringone (0, 10, 50, 100, and 200 mg/liter) were added to the MSAS media.

Agrobacterial cell = assay: Agrobacterium elimination in shoot induction media; format: cell-based, Agrobacterium tumefaciens; details: 125 mg/liter calbenicillin-containing media
Experimental: The optimized conditions for the A. tumefaciens infection of zoysiagrass calli included the use of type 3 calli as donor, a co-cultivation period of 9 days, the exclusion of 2,4-D and CaCl2 from the media, and the use of 100 mg/l acetosyringone. After pGPTV-HB co-cultivation, calli were transferred to filter paper-laid MSCG media and cultured for 2-4 weeks in the dark. The calli were then transferred to filter paper-laid MSSI medium for shoot induction. Various concentrations (125, 250, and 500 mg/liter) of calbenicillin were added to the shoot induction medium. Induced shoots were subsequently transferred to the MSRS medium for rooting and selection for 4 weeks. Five mg/liter bialaphos and 10 mg/liter hygromycin were used for selection of bialaphos- and hygromycin-resistant plantlets. The rooting plants on the selection medium were transferred to the MSPG medium without antibiotics and bialaphos and further grown. The fully grown plants were then transferred to a pot containing soil and grown in an environmentally controlled growth chamber set at 30° C., 80% relative humidity and 18-hour photoperiod with 30 μmolm^−2s^−1 irradiance provided by cool white fluorescent tubes. When the roots developed enough, pots were transferred to green house. […]

## O=C(O)COc1ccc(Cl)cc1Cl [2,4-D, 2,4-dichlorophenoxyacetic acid]
Zoysiagrass type 1 calli; 2,4-D 1 mg/l
  Callus fresh weight, Total: 81.5 mg
  Callus fresh weight, Type 1: 45.8 mg
  Callus fresh weight, Type 2: 22.3 mg
  Callus fresh weight, Type 3: 0 mg
  Callus fresh weight, Type 4: 13.4 mg
Zoysiagrass type 1 calli; 2,4-D 2 mg/l
  Callus fresh weight, Total: 37.0 mg
  Callus fresh weight, Type 1: 18.8 mg
  Callus fresh weight, Type 2: 2.3 mg
  Callus fresh weight, Type 3: 1.5 mg
  Callus fresh weight, Type 4: 14.5 mg
Zoysiagrass type 1 calli; 2,4-D 4 mg/l
  Callus fresh weight, Total: 29.6 mg
  Callus fresh weight, Type 1: 11.4 mg
  Callus fresh weight, Type 2: 0 mg
  Callus fresh weight, Type 3: 0.9 mg
  Callus fresh weight, Type 4: 17.2 mg
Zoysiagrass calli; 2,4-D 0, 1, 2, 4, 8 mg/liter in co-cultivation medium, 9 days of co-cultivation
  Number of GUS blue spots per 1 g fresh weight of calli, effect of 2,4-D: decreased as the 2,4-D concentration increased

## c1ccc(CNc2ncnc3[nH]cnc23)cc1 [BA]
Zoysiagrass type 1 calli; addition of 0.01 mg/liter BA in combination with 2,4-D
  Reduction of incidence rate of non-regenerable type 4 calli: 1.8-3.4 times

## [Ca+2].[Cl-].[Cl-] [CaCl2]
Zoysiagrass calli; CaCl2 0, 11, 110, 220, 440 mg/liter in co-cultivation medium
  Number of GUS blue spots per 1 g fresh weight calli, effect of CaCl2: decreased as the CaCl2 concentration increased

## COc1cc(C(C)=O)cc(OC)c1O [acetosyringone]
Zoysiagrass calli; 50 mg/liter acetosyringone in co-cultivation medium vs acetosyringone-free medium
  Increase of the number of blue spots (factor): 9
Zoysiagrass calli; 30˜70 mg/liter acetosyringone during co-cultivation
  Transformation efficiency: greatly enhanced
Zoysiagrass calli; higher than 100 mg/liter acetosyringone
  Effect on the transformation: negative effect

## CC1(C)S[C@@H]2[C@H](NC(=O)C(C(=O)O)c3ccccc3)C(=O)N2[C@H]1C(=O)O (stereo partly shown) [calbenicillin]
Agrobacterial cell
  Agrobacterial cell contamination of media: sometimes observed
